Laboratory results taken from patent US20180099931A1 (AbbVie S.à.r.l., priority 2016, published 2018).
Where two headings read alike, the source gives them in different places.

Biological target: T1, F508delCFTR (Homo sapiens, UniProt P13569, DEL508-508)
T1 construct: expressed in transfected cells; host or cells: CFBE41o- human lung-derived epithelial cells (CFBE4lo-F508delCFTR-HRP), doxycycline-inducible
Assay: Cell Surface Expression-Horse Radish Peroxidase (CSE-HRP) Assay;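 for Maximum % activity (with co-corrector): co-corrector and positive control are both the same reference corrector at 2 µM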;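 for Maximum % activity (without co-corrector): percent of the 2 µM on-plate positive control corrector response above DMSO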
Format: cell-based
Settings: for Maximum % activity (with co-corrector) / Emax: maximum at any tested concentration, normalized to on-plate positive control; for Emax: read-out: Maximum % activity (without co-corrector)

[1] = test compound without co-corrector, read-out: EC50 (without co-corrector)
[2] = with co-corrector (2 μM of 3-[(2R,4R)-4-({[1-(2,2-difluoro-1,3-benzodioxol-5-yl)cyclopropyl]carbonyl}amino)-7-methoxy-3,4-dihydro-2H-chromen-2-yl]benzoic acid), read-out: EC50 (with co-corrector)
[3] = test compound without co-corrector
[4] = with co-corrector (2 μM of 3-[(2R,4R)-4-({[1-(2,2-difluoro-1,3-benzodioxol-5-yl)cyclopropyl]carbonyl}amino)-7-methoxy-3,4-dihydro-2H-chromen-2-yl]benzoic acid)
[5] = CSE-HRP, test compound without co-corrector, read-out: EC50 (without co-corrector)
[6] = CSE-HRP, with co-corrector (2 μM of 3-[(2R,4R)-4-({[1-(2,2-difluoro-1,3-benzodioxol-5-yl)cyclopropyl]carbonyl}amino)-7-methoxy-3,4-dihydro-2H-chromen-2-yl]benzoic acid), read-out: EC50 (with co-corrector)
[7] = CSE-HRP, with co-corrector (2 μM)

T1 sequence (P13569 with tags, fused parts or gaps DEL508-508): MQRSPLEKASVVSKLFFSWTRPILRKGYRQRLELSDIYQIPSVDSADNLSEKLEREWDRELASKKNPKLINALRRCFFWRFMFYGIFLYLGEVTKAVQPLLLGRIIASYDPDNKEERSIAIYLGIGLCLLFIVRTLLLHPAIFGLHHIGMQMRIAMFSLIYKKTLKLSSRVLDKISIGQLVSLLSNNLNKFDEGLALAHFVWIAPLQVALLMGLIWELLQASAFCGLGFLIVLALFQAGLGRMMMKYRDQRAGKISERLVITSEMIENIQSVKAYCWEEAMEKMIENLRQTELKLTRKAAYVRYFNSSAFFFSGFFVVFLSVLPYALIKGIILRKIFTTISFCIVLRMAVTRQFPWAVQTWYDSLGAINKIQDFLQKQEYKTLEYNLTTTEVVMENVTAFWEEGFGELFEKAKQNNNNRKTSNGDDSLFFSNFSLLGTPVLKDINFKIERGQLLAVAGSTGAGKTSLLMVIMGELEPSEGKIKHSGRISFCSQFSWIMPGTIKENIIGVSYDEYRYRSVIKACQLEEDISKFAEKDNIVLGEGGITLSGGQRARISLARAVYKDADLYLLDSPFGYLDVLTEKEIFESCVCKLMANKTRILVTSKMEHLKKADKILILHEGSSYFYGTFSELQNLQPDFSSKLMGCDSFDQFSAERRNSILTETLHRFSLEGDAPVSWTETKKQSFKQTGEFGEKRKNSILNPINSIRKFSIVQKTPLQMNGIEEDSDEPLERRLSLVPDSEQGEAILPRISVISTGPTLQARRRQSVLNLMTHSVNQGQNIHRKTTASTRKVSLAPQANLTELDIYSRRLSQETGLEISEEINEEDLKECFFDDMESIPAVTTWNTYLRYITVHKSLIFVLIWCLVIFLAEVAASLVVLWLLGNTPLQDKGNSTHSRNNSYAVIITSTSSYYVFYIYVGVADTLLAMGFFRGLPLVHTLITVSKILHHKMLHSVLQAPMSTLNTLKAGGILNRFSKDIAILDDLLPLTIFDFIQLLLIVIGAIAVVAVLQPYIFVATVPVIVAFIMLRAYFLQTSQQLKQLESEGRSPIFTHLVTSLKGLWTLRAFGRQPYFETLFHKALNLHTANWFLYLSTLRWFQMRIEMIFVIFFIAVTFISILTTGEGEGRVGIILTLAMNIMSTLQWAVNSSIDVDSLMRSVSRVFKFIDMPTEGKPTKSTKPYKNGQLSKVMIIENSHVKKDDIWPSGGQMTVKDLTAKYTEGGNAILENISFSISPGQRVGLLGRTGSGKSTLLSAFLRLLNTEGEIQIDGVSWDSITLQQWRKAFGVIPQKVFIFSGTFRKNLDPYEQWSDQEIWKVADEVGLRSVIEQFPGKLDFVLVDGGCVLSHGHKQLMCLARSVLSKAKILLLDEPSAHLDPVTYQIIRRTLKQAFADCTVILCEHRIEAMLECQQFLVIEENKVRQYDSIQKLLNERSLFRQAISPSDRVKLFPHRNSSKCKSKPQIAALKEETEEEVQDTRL

Row | SMILES | EC50 [1] [µM] | EC50 [2] [µM] | Maximum % activity (with co-corrector) (with co-corrector (2 μM)) | Emax (without co-corrector) [%] | Emax [3] [%] | Maximum % activity (with co-corrector) [4] | EC50 [5] [µM] | EC50 [6] [µM] | Maximum % activity (with co-corrector) [7] | Emax (CSE-HRP, without co-corrector) [%]
1 | COc1ccc(C(C)(C)C)cc1CN[C@H]1[C@H](C(C)(C)C)[C@@H](C(=O)O)N(C(=O)c2cc(C#N)ccc2OC)[C@H]1c1ccccc1 [Example I-90] | 1 to 10 | 1 to 10 | +++ (≥350) | 100 to 200 | – | – | – | – | – | –
2 | CC#CCOC(=O)N1[C@H](C(=O)O)[C@@H](C(C)(C)C)[C@H](NCc2cc(C(C)(C)C)ccc2OC)[C@@H]1c1ccccc1 [II-389] | 1 to 10 | 1 to 10 | – | – | 100 to 200 | +++ (≥350) | – | – | – | –
3 | COc1ccc(-c2ccccc2)cc1CN[C@H]1[C@H](C(C)(C)C)[C@@H](C(=O)O)N(C(=O)OC(C)C)[C@H]1c1ccccc1 [II-160] | – | – | – | – | – | – | 1 to 10 | < 1 | +++ (≥350) | > 200
4 | COc1cc(C(F)(F)F)ccc1CN[C@H]1[C@H](C(C)(C)C)[C@@H](C(=O)O)N(C(=O)[C@@H]2CCC[C@H](O)C2)[C@H]1c1ccccc1 [II-538] | 1 to 10 | 1 to 10 | – | – | 100 to 200 | +++ (≥350) | – | – | – | –
5 | COc1ccc(C(C)(C)C)cc1CN[C@H]1[C@H](C(C)(C)C)[C@@H](C(=O)O)N(C(=O)C2C3CCCC32)[C@H]1c1ccccc1 (stereo partly drawn) [Example 46, (2S,3S,4S,5S)-1-(bicyclo[3.1.0]hexane-6-carbonyl)-3-tert-butyl-4-{[(5-tert-butyl-2-methoxyphenyl)methyl]amino}-5-phenylpyrrolidine-2-carboxylic acid] | 1 to 10 | < 1 | +++ (≥350) | > 200 | – | – | – | – | – | –
6 | COc1ccc(C(C)(C)C)cc1CN[C@H]1[C@H](C(C)(C)C)[C@@H](C(=O)O)N(C(=O)C2CC(C)(C)OC(C)(C)C2)[C@H]1c1ccccc1 [Example 54, (2S,3S,4S,5S)-3-tert-butyl-4-{[(5-tert-butyl-2-methoxyphenyl)methyl]amino}-5-phenyl-1-(2,2,6,6-tetramethyloxane-4-carbonyl)pyrrolidine-2-carboxylic acid] | 1 to 10 | < 1 | +++ (≥350) | > 200 | – | – | – | – | – | –
7 | Cc1cc(C(F)(F)F)cc(N[C@@H]2[C@@H](C(C)(C)C)[C@H](C(=O)NS(=O)(=O)C3(C)CC3)N(C(=O)C3CCCCC3)[C@@H]2c2ccccc2)n1 (racemic) [III-51] | 1 to 10 | 1 to 10 | – | – | < 100 | ++ (≥150 and <350) | – | – | – | –
8 | COc1cc(C(F)(F)F)ccc1CN[C@H]1[C@H](C(C)(C)C)[C@@H](C(=O)O)N(C(=O)[C@H](OC)c2ccccc2)[C@H]1c1cccnc1OC [II-84] | – | – | – | – | – | – | 1 to 10 | 1 to 10 | +++ (≥350) | 100 to 200
9 | COc1cccc([C@@H]2[C@H](NCc3cc(C(F)(F)F)ccc3OC)[C@@H](C(C)(C)C)[C@H](C(=O)O)N2C(=O)C2CCCCO2)n1 (mixture of isomers) [Example I-23] | 1 to 10 | 1 to 10 | +++ (≥350) | < 100 | – | – | – | – | – | –
10 | Cc1cc(C(F)(F)F)cc(N[C@H]2C(c3ccccc3)N(C(=O)N(C(C)C)C(C)C)[C@@H](C(=O)O)[C@@H]2C2CC2)n1 (mixture of isomers) [III-47] | 1 to 10 | 1 to 10 | – | – | < 100 | ++ (≥150 and <350) | – | – | – | –
11 | COc1ccc([Si](C)(C)C)cc1CN[C@H]1[C@H](C(C)(C)C)[C@@H](C(=O)O)N(C(=O)C2CCCCC2)[C@H]1c1ccccc1 [Example I-171] | < 1 | < 1 | – | – | – | – | – | – | – | –
12 | CC(C)(C)NC(=O)c1ccc(N[C@H]2[C@H](C(C)(C)C)[C@@H](C(=O)O)N(C(=O)C3CCCCC3)[C@H]2c2ccccc2)nc1 [III-155] | > 10 | 1 to 10 | + (<150) | – | < 100 | – | – | – | – | –
13 | COc1ccc(C(C)(C)C)cc1CN[C@H]1[C@H](C(C)(C)C)[C@@H](C(=O)O)N(C(=O)C(OC)C2CCCCC2)[C@H]1c1ccccc1 (stereo partly shown) [Example I-160] | < 1 | < 1 | +++ (≥350) | > 200 | – | – | – | – | – | –
14 | COc1ccc(C(F)(F)F)cc1CN[C@@H]1[C@@H](C(C)(C)C)[C@H](C(=O)O)N(C(=O)C2CCCCC2)[C@@H]1c1ccccn1 (racemic) [III-60] | 1 to 10 | 1 to 10 | – | – | < 100 | +++ (≥350) | – | – | – | –
15 | COc1ccc(Cl)cc1CN[C@H]1[C@H](C(C)(C)C)[C@@H](C(=O)O)N(C(=O)C2CCCCC2)[C@H]1c1ccccc1 [II-97] | – | – | – | – | – | – | 1 to 10 | < 1 | +++ (≥350) | > 200
16 | COc1cc2c(cc1CN[C@H]1[C@H](C(C)(C)C)[C@@H](C(=O)O)N(C(=O)OC(C)C)[C@H]1c1cccnc1N(C)C)CCC2 [II-563] | 1 to 10 | 1 to 10 | – | – | 100 to 200 | +++ (≥350) | – | – | – | –
17 | COc1cc(C(F)(F)F)ccc1CN[C@@H]1[C@@H](C(C)(C)C)[C@H](C(=O)O)N(C(=O)C(C)c2ccccc2)[C@@H]1c1ccccc1 (single isomer, unassigned) [III-112] | 1 to 10 | 1 to 10 | ++ (≥150 and <350) | – | < 100 | – | – | – | – | –
18 | COc1ccc(C23CC(C2)C3)cc1CN[C@H]1[C@H](C(C)(C)C)[C@@H](C(=O)O)N(C(=O)C2CCCCC2)[C@H]1c1ccccc1F [II-517] | 1 to 10 | < 1 | – | – | > 200 | +++ (≥350) | – | – | – | –
19 | COc1ccc(C(C)(C)C)cc1CN[C@H]1[C@H](C(C)(C)C)[C@@H](C(=O)O)N(C(=O)[C@@H](C)[C@H]2CCCCO2)[C@H]1c1ccccc1 (relative stereo) [II-455] | 1 to 10 | 1 to 10 | – | – | > 200 | +++ (≥350) | – | – | – | –
20 | CC(C)(C)[C@H]1[C@H](NCc2ccc(Cl)cc2Cl)[C@H](c2ccccc2)N(C(=O)C2CCCCC2)[C@@H]1C(=O)O [II-113] | – | – | – | – | – | – | < 1 | 1 to 10 | +++ (≥350) | < 100
21 | COc1ncc(Cl)cc1CN[C@@H]1[C@@H](C(C)(C)C)[C@H](C(=O)O)N(C(=O)C2CCCCC2)[C@@H]1c1ccccc1 (racemic) [Example I-36] | 1 to 10 | 1 to 10 | +++ (≥350) | 100 to 200 | – | – | – | – | – | –
22 | COc1ccc(C(C)(C)C)cc1CN[C@H]1[C@H](C(C)(C)C)[C@@H](C(=O)O)N(C(=O)CC2CCC(C)(C)OC2)[C@H]1c1ccccc1 (stereo partly shown) [II-176] | – | – | – | – | – | – | 1 to 10 | 1 to 10 | +++ (≥350) | 100 to 200
23 | COc1ccc(C23CC(C2)C3)cc1CN[C@H]1[C@H](C(C)(C)C)[C@@H](C(=O)O)N(C(=O)[C@@H]2CCC[C@@H](OC)C2)[C@H]1c1ccccc1 [II-479] | 1 to 10 | 1 to 10 | – | – | > 200 | +++ (≥350) | – | – | – | –
24 | COc1ccc(C2(C)CCC2)cc1CN[C@H]1[C@H](C(C)(C)C)[C@@H](C(=O)O)N(C(=O)[C@@H]2CCCCO2)[C@H]1c1cccnc1OC [III-233] | 1 to 10 | 1 to 10 | +++ (≥350) | – | > 200 | – | – | – | – | –
